According to PubChem BioAssay (NCI):
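Interpolation was linear, between the two tested concentrations surrounding the appropriate level; five concentrations were tested over 48 hours in 96-well plates. The concentration for 50% growth inhibition is given as GI50. TGI: total growth inhibition.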

Assays:
Assay in all cases: NCI anticancer screen, dose series, 48 h
[1] = tested on: OVCAR-5 ovarian
[2] = tested on: SK-MEL-2 melanoma
[3] = tested on: HCC-2998 colon
[4] = tested on: NCI-H522 lung
[5] = tested on: UACC-62 melanoma
[6] = tested on: U251 CNS
[7] = tested on: CCRF-CEM leukemia
[8] = tested on: NCI-H226 lung
[9] = tested on: NCI-H23 lung
[10] = tested on: HOP-62 NSCLC
[11] = tested on: COLO 205 colon
[12] = tested on: 786-0 renal
[13] = tested on: NCI/ADR-RES ovarian
[14] = tested on: HT29 colon
[15] = tested on: HCT-116 colon
[16] = tested on: SNB-75 CNS
[17] = tested on: MDA-MB-435
[18] = tested on: A549 NSCLC
[19] = tested on: SF-268 CNS
[20] = tested on: SR leukemia
[21] = tested on: DU-145 prostate
[22] = tested on: EKVX NSCLC
[23] = tested on: KM12 colon
[24] = tested on: HOP-92 NSCLC
[25] = tested on: BT-549 breast
[26] = tested on: SNB-19 CNS
[27] = tested on: NCI-H460 lung
[28] = tested on: SN12C renal
[29] = tested on: HCT-15 colon
[30] = tested on: MOLT-4 leukemia
[31] = tested on: ACHN renal
[32] = tested on: TK-10 renal
[33] = tested on: HS 578T breast
[34] = tested on: A498 renal
[35] = tested on: RXF 393 renal
[36] = tested on: T-47D breast
[37] = tested on: UO-31 renal
[38] = tested on: M14 melanoma
[39] = tested on: IGROV1 ovarian
[40] = tested on: SK-OV-3 ovarian
[41] = tested on: MCF7 breast
[42] = tested on: K-562 leukemia
[43] = tested on: OVCAR-4 ovarian
[44] = tested on: SK-MEL-28 melanoma
[45] = tested on: OVCAR-8 ovarian
[46] = tested on: HL-60(TB) leukemia
[47] = tested on: SW-620 colon
[48] = tested on: SK-MEL-5 melanoma
[49] = tested on: UACC-257 melanoma
[50] = tested on: PC-3 prostate
[51] = tested on: SF-295 CNS
[52] = tested on: RPMI-8226 leukemia
[53] = tested on: SF-539 CNS
[54] = tested on: MALME-3M melanoma
[55] = tested on: OVCAR-3 ovarian
[56] = tested on: MDA-MB-231 breast
[57] = tested on: CAKI-1 renal
[58] = tested on: LOX IMVI melanoma

## CCOC(=O)c1c(NC(=O)c2ccccc2C(F)(F)F)sc2c1CCC(=O)C2
[1]
  GI50: 2.52 µM
  TGI: 7.1 µM
[2]
  GI50: 2.75 µM
  TGI: 8.82 µM
[3]
  GI50: 3.16 µM
  TGI: 10.5 µM
[4]
  GI50: 1.92 µM
  TGI: 4.82 µM
[5]
  GI50: 2.83 µM
  TGI: 11.5 µM
[6]
  GI50: 0.792 µM
  TGI: 12 µM
[7]
  GI50: 3.24 µM
  TGI: > 100 µM
[8]
  GI50: 2.94 µM
  TGI: 9.47 µM
[9]
  GI50: 2.93 µM
  TGI: 9.25 µM
[10]
  GI50: 3.71 µM
  TGI: > 100 µM
[11]
  GI50: 2.12 µM
  TGI: 4.12 µM
[12]
  GI50: 4.63 µM
  TGI: > 100 µM
[13]
  GI50: 3.09 µM
  TGI: 11.2 µM
[14]
  GI50: 3.1 µM
  TGI: 8.75 µM
[15]
  GI50: 3.29 µM
  TGI: 12.6 µM
[16]
  GI50: 1.39 µM
  TGI: 7.14 µM
[17]
  GI50: 3.18 µM
  TGI: 11.6 µM
[18]
  GI50: 3.51 µM
  TGI: > 100 µM
[19]
  GI50: 3.96 µM
  TGI: > 100 µM
[20]
  GI50: 2.33 µM
  TGI: > 100 µM
[21]
  GI50: 4.44 µM
  TGI: > 100 µM
[22]
  GI50: 3.41 µM
  TGI: 23.6 µM
[23]
  GI50: 2.69 µM
  TGI: 7.21 µM
[24]
  GI50: 1.82 µM
  TGI: 5.52 µM
[25]
  GI50: 3.35 µM
  TGI: > 100 µM
[26]
  GI50: 3.85 µM
  TGI: 41.2 µM
[27]
  GI50: 3.48 µM
  TGI: 12.1 µM
[28]
  GI50: 3.06 µM
  TGI: > 100 µM
[29]
  GI50: 2.72 µM
  TGI: 10.3 µM
[30]
  GI50: 3.54 µM
  TGI: > 100 µM
[31]
  GI50: 3.33 µM
  TGI: 10.4 µM
[32]
  GI50: 5.36 µM
  TGI: > 100 µM
[33]
  GI50: 4.66 µM
  TGI: > 100 µM
[34]
  GI50: 11.5 µM
  TGI: 49.2 µM
[35]
  GI50: 2.39 µM
  TGI: 8.09 µM
[36]
  GI50: 3.12 µM
  TGI: > 100 µM
[37]
  GI50: 2.3 µM
  TGI: 7.57 µM
[38]
  GI50: 3.94 µM
  TGI: > 100 µM
[39]
  GI50: 3.09 µM
  TGI: 10.3 µM
[40]
  GI50: 3.18 µM
  TGI: > 100 µM
[41]
  GI50: 2.79 µM
  TGI: 30.2 µM
[42]
  GI50: 1.98 µM
  TGI: > 100 µM
[43]
  GI50: 3.79 µM
  TGI: > 100 µM
[44]
  GI50: 4.51 µM
  TGI: 65 µM
[45]
  GI50: 3.4 µM
  TGI: > 100 µM
[46]
  GI50: 2.4 µM
  TGI: 6.48 µM
[47]
  GI50: 2.64 µM
  TGI: 10 µM
[48]
  GI50: 1.88 µM
  TGI: 3.64 µM
[49]
  GI50: 3.49 µM
  TGI: 37.8 µM
[50]
  GI50: 2.45 µM
  TGI: 7.68 µM
[51]
  GI50: 2.58 µM
  TGI: 7.64 µM
[52]
  GI50: 1.95 µM
  TGI: 5.46 µM
[53]
  GI50: 1.87 µM
  TGI: 3.72 µM
[54]
  GI50: 2.78 µM
  TGI: 8 µM

## CC(=O)OC[C@@]12Oc3c(cccc3-c3ccc(O)c4c3O[C@]3(COC(C)=O)C(=C4O)C(=O)C[C@H](C)[C@@H]3OC(C)=O)C(O)=C1C(=O)C[C@H](C)[C@@H]2OC(C)=O
[1]
  GI50: 29.3 µM
  TGI: > 100 µM
[2]
  GI50: 14.7 µM
  TGI: 63.9 µM
[3]
  GI50: 6.13 µM
  TGI: > 100 µM
[4]
  GI50: 7.97 µM
  TGI: 46.4 µM
[5]
  GI50: 5.75 µM
  TGI: > 100 µM
[6]
  GI50: 4.08 µM
  TGI: > 100 µM
[7]
  GI50: 5.92 µM
  TGI: > 100 µM
[55]
  GI50: 13.9 µM
  TGI: > 100 µM
[8]
  GI50: 20.2 µM
  TGI: 63.5 µM
[9]
  GI50: 10.6 µM
  TGI: > 100 µM
[10]
  GI50: 4.19 µM
  TGI: > 100 µM
[11]
  GI50: 19.7 µM
  TGI: 48.9 µM
[12]
  GI50: 33.5 µM
  TGI: > 100 µM
[13]
  GI50: 32.7 µM
  TGI: > 100 µM
[14]
  GI50: 7.87 µM
  TGI: > 100 µM
[15]
  GI50: 28.3 µM
  TGI: > 100 µM
[16]
  GI50: 2.53 µM
  TGI: 42.8 µM
[17]
  GI50: 5.3 µM
  TGI: > 100 µM
[18]
  GI50: 4.06 µM
  TGI: > 100 µM
[19]
  GI50: 4.32 µM
  TGI: > 100 µM
[20]
  GI50: 3.68 µM
  TGI: > 100 µM
[21]
  GI50: 10.8 µM
  TGI: > 100 µM
[22]
  GI50: 24.3 µM
  TGI: > 100 µM
[23]
  GI50: 27.5 µM
  TGI: > 100 µM
[24]
  GI50: 5 µM
  TGI: 38.5 µM
[25]
  GI50: 4.54 µM
  TGI: > 100 µM
[26]
  GI50: 15.7 µM
  TGI: > 100 µM
[27]
  GI50: 4.83 µM
  TGI: > 100 µM
[28]
  GI50: 6.98 µM
  TGI: > 100 µM
[29]
  GI50: 5.45 µM
  TGI: > 100 µM
[30]
  GI50: 10.9 µM
  TGI: > 100 µM
[31]
  GI50: 30.3 µM
  TGI: > 100 µM
[32]
  GI50: 29.9 µM
  TGI: > 100 µM
[33]
  GI50: 3.77 µM
  TGI: > 100 µM
[34]
  GI50: 3.3 µM
  TGI: 48.4 µM
[56]
  GI50: 25.5 µM
  TGI: > 100 µM
[35]
  GI50: 9.39 µM
  TGI: 50.5 µM
[57]
  GI50: 28.6 µM
  TGI: > 100 µM
[36]
  GI50: 18.5 µM
  TGI: > 100 µM
[37]
  GI50: 23.9 µM
  TGI: > 100 µM
[58]
  GI50: 3.53 µM
  TGI: 12.9 µM
[39]
  GI50: 7.12 µM
  TGI: > 100 µM
[40]
  GI50: 25.5 µM
  TGI: 88.6 µM
[41]
  GI50: 26.1 µM
  TGI: > 100 µM
[42]
  GI50: 30.5 µM
  TGI: > 100 µM
[43]
  GI50: 29.4 µM
  TGI: > 100 µM
[44]
  GI50: 6.1 µM
  TGI: > 100 µM
[45]
  GI50: 6.39 µM
  TGI: > 100 µM
[46]
  GI50: 17.7 µM
  TGI: 56.6 µM
[47]
  GI50: 33.2 µM
  TGI: > 100 µM
[48]
  GI50: 4.76 µM
  TGI: 16.9 µM
[49]
  GI50: 3.4 µM
  TGI: 31.4 µM
[50]
  GI50: 15.3 µM
  TGI: > 100 µM
[51]
  GI50: 6.92 µM
  TGI: 80.8 µM
[52]
  GI50: 6.08 µM
  TGI: 46.1 µM
[53]
  GI50: 3.97 µM
  TGI: > 100 µM
[54]
  GI50: 6.88 µM
  TGI: 56.5 µM
